Experimental data published in patent US6242494A, “Substituted β-amino acid inhibitors of methionine aminopeptidase-2” (Abbott Laboratories, priority 1999, dated 2001).
Structures can show the parent of a compound that is named as a salt. Where two headings read alike, the source gives them in different places.

Biological target: T1, methionine aminopeptidase-2 (MetAP2) (Homo sapiens, UniProt P50579)
T1 construct: made in house; host or cells: insect cells, baculovirus system (secreted, purified from culture supernatant)
T1 sequence (P50579 whole entry): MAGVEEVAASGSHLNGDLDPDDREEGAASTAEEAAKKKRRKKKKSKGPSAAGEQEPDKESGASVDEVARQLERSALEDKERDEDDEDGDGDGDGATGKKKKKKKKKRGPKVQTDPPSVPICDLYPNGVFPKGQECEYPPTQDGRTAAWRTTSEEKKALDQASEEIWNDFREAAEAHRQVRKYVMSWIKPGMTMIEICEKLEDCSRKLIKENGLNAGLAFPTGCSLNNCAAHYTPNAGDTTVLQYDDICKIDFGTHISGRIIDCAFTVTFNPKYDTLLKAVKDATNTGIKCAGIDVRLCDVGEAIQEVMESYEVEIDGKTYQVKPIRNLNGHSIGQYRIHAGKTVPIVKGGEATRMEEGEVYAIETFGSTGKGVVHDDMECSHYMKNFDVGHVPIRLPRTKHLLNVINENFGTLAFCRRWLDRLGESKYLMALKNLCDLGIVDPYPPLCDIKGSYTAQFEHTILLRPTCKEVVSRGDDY
Assay: Inhibition of MetAP2 enzyme activity (96-well, Met-Ala-Ser substrate, L-amino acid oxidase/peroxidase/ortho-dianisidine, 450 nm)
Type: biochemical
Conditions: pH 7.4, Met-Ala-Ser substrate, 20 minutes

[1] = IC50, recombinant MetAP2 4 μg/mL

Compound	IC50 [1]	IC50 (recombinant MetAP2 4 μg/mL, read-out: IC50)
CC(C)COCCCNC(=O)C(O)[C@H](N)CC1CCCCC1 (mixture of isomers) [Example 214, (2RS,3R)-3-amino-4-cyclohexyl-2-hydroxy-N-(3-isobutoxypropyl)butanamide Hydrochloride]	2800 nM	–
N[C@H](CC1CCCCC1)C(O)C(=O)Nc1ccc(N2CCOCC2)cc1 (mixture of isomers) [Example 215, (2RS,3R)-3-amino-4-cyclohexyl-2-hydroxy-N-(4-(4-morpholinyl)phenyl)butanamide Hydrochloride]	1300 nM	–
N[C@H](CC1CCCCC1)C(O)C(=O)NCCC(c1ccccc1)c1ccccc1 (mixture of isomers) [Example 216, (2RS,3R)-3-amino-4-cyclohexyl-N-(3,3-diphenylpropyl)-2-hydroxybutanamide Hydrochloride]	1800 nM	–
CC(C)CCC(C)NC(=O)C(O)[C@H](N)CC1CCCCC1 (mixture of isomers) [Example 217, (2RS,3R)-3-amino-4-cyclohexyl-N-(1,4-dimethylpentyl)-2-hydroxybutanamide Hydrochloride]	1800 nM	–
C[C@@H](c1cccc2ccccc12)N(C)C(=O)C(O)[C@H](N)CC1CCCCC1 (mixture of isomers) [Example 219, (2RS,3R)-3-amino-4-cyclohexyl-2-hydroxy-N-methyl-N-((1S)-1-(1-naphthyl)ethyl)butanamide Hydrochloride]	1800 nM	–
COc1ccc(C(F)(F)F)cc1NC(=O)C(O)[C@H](N)CC1CCCCC1 (mixture of isomers) [Example 220, (2RS,3R)-3-amino-4-cyclohexyl-2-hydroxy-N-(2-methoxy-5-(trifluoromethyl)phenyl)butanamide Hydrochloride]	5500 nM	–
COc1ccc(-c2ccccc2)cc1NC(=O)C(O)[C@H](N)CC1CCCCC1 (mixture of isomers) [Example 221, (2RS,3R)-3-amino-4-cyclohexyl-2-hydroxy-N-(4-methoxy(1,1'-biphenyl)-3-yl)butanamide Hydrochloride]	5400 nM	–
N[C@H](CC1CCCCC1)C(O)C(=O)Nc1ccc2c(c1)OCCO2 (mixture of isomers) [Example 222, (2RS,3R)-3-amino-4-cyclohexyl-N-(2,3-dihydro-1,4-benzodioxin-6-yl)-2-hydroxybutanamide Hydrochloride]	200 nM	–
N[C@H](CC1CCCCC1)C(O)C(=O)Nc1cccc(OCc2ccccc2)c1 (mixture of isomers) [Example 223, (2RS,3R)-3-amino-N-(3-(benzyloxy)phenyl)-4-cyclohexyl-2-hydroxybutanamide Hydrochloride]	880 nM	–
CCOc1cccc(NC(=O)C(O)[C@H](N)CC2CCCCC2)c1 (mixture of isomers) [Example 224, (2RS,3R)-3-amino-4-cyclohexyl-N-(3-ethoxyphenyl)-2-hydroxybutanamide Hydrochloride]	430 nM	–
COc1cc(NC(=O)C(O)[C@H](N)CC2CCCCC2)cc(OC)c1OC (mixture of isomers) [Example 225, (2RS,3R)-3-amino-4-cyclohexyl-2-hydroxy-N-(3,4,5-trimethoxyphenyl)butanamide Hydrochloride]	350 nM	–
CC(Cc1ccccc1F)NC(=O)C(O)[C@H](N)CC1CCCCC1 (mixture of isomers) [Example 226, (2RS,3R)-3-amino-4-cyclohexyl-N-(2-(2-fluorophenyl)-1-methylethyl)-2-hydroxybutanamide Hydrochloride]	970 nM	–
CC(C)(Cc1ccc(F)cc1)NC(=O)C(O)[C@H](N)CC1CCCCC1 (mixture of isomers) [Example 227, (2RS,3R)-3-amino-4-cyclohexyl-N-(2-(4-fluorophenyl)-1,1-dimethylethyl)-2-hydroxybutanamide Hydrochloride]	880 nM	–
N[C@H](CC1CCCCC1)C(O)C(=O)NC1CCc2ccccc21 (mixture of isomers) [Example 228, (2RS,3R)-3-amino-4-cyclohexyl-N-(2,3-dihydro-1H-inden-1-yl)-2-hydroxybutanamide Hydrochloride]	930 nM	–
N[C@H](CC1CCCCC1)C(O)C(=O)N[C@H]1C[C@@H]1c1ccccc1 (mixture of isomers) [Example 229, (2RS,3R)-3-amino-4-cyclohexyl-2-hydroxy-N-((1S,2R)-2-phenylcyclopropyl)butanamide Hydrochloride]	1200 nM	–
CC(C)(C)CC(C)(C)NC(=O)C(O)[C@H](N)CC1CCCCC1 (mixture of isomers) [Example 230, (2RS,3R)-3-amino-4-cyclohexyl-2-hydroxy-N-(1,1,3,3-tetramethylbutyl)butanamide Hydrochloride]	34000 nM	–
CC(C)CC(C)NC(=O)C(O)[C@H](N)CC1CCCCC1 (mixture of isomers) [Example 231, (2RS,3R)-3-amino-4-cyclohexyl-N-(1,3-dimethylbutyl)-2-hydroxybutanamide Hydrochloride]	2500 nM	–
CC(NC(=O)C(O)[C@H](N)CC1CCCCC1)C12CC3CC(CC(C3)C1)C2 (mixture of isomers) [Example 233, (2RS,3R)-N-(1-(1-adamantyl)ethyl)-3-amino-4-cyclohexyl-2-hydroxybutanamide Hydrochloride]	2700 nM	–
N[C@H](CC1CCCCC1)C(O)C(=O)NCc1cccc(OC(F)(F)F)c1 (mixture of isomers) [Example 236, (2RS,3R)-3-amino-4-cyclohexyl-2-hydroxy-N-(3-(trifluoromethoxy)benzyl)butanamide Hydrochloride]	1900 nM	–
N[C@H](CC1CCCCC1)C(O)C(=O)NCc1cc(C(F)(F)F)cc(C(F)(F)F)c1 (mixture of isomers) [Example 237, (2RS,3R)-3-amino-N-(3,5-bis(trifluoromethyl)benzyl)-4-cyclohexyl-2-hydroxybutanamide Hydrochloride]	5100 nM	–

Compound	IC50 [1]	IC50 (recombinant MetAP2 4 μg/mL, read-out: IC50)
N[C@H](CC1CCCCC1)C(O)C(=O)NCc1ccccc1C(F)(F)F (mixture of isomers) [Example 238, (2RS,3R)-3-amino-4-cyclohexyl-2-hydroxy-N-(2-(trifluoromethyl)benzyl)butanamide]	2700 nM	–
CCSC(C)[C@H](NC(=O)OC(C)(C)C)C(O)C(=O)NC(=O)CCCc1ccccc1 (mixture of isomers) [Example 37, (2RS,3R)-N-((phenylbutyryl)-3-tert-butoxycarbonylamino-2-hydroxy-4-ethylthio)pentanamide]	–	16000 nM
CCNC(=O)[C@H](C)NC(=O)C(O)[C@@H](N)CCSC (stereo partly drawn) [Example 2, (2RS,3S,1'S)-N-((1-Ethylcarboxamido)ethyl)-3-amino-2-hydroxy-5-(methylthio)pentanamide hydrochloride]	47000 nM	–
CCNC(=O)[C@H](C)NC(=O)C(O)[C@H](N)CCSC (stereo partly drawn) [Example 3, (2RS,3R,1'S)-N-((1-Ethylcarboxamido)ethyl)-3-amino-2-hydroxy-5-(methylthio)pentanamide hydrochloride]	10000 nM	–
CSCC[C@@H](N)C(O)C(=O)NCCc1ccccc1 (stereo partly drawn) [Example 5, (2RS,3R)-N-((2-phenylethyl)-3-amino-2-hydroxy-5-(methylthio)pentanamide hydrochloride]	2600 nM	–
CSCC[C@@H](N)C(O)C(=O)NCCCc1ccccc1 (stereo partly drawn) [Example 6, (2RS,3R)-N-((3-phenylpropyl)-3-amino-2-hydroxy-5-(methylthio)pentanamide hydrochloride]	3000 nM	–
CSCC[C@@H](N)C(O)C(=O)NCCc1ccc(S(N)(=O)=O)cc1 (stereo partly drawn) [Example 9, (2RS,3R)-N-(2-(4-sulfonamidophenyl)ethyl)-3-amino-2-hydroxy-5-(methylthio)pentanamide hydrochloride]	2300 nM	–
CSCC[C@@H](N)C(O)C(=O)NCCc1ccccn1 (stereo partly drawn) [Example 10, (2RS,3R)-N-(2-(2-pyridyl)ethyl)-3-amino-2-hydroxy-5-(methylthio)pentanamidedihydrochloride]	3600 nM	–
CCSCC[C@@H](N)C(O)C(=O)NCCCCc1ccccc1 (stereo partly drawn) [Example 13, (2RS,3R)-N-(4-phenyl)butyl)-3-amino-2-hydroxy-5-(ethylthio)pentanamide hydrochloride]	1100 nM	–
CCOC(=O)CCNC(=O)C(O)[C@H](N)CCSCC (stereo partly drawn) [Example 14, (2RS,3R)-N-(3-(carboethoxy)ethyl)-3-amino-2-hydroxy-5-(ethylthio)pentanamide hydrochloride]	720 nM	–
CCSCC[C@@H](N)C(O)C(=O)NCCC(=O)OCc1ccccc1 (stereo partly drawn) [Example 15, (2RS,3R)-N-(3-(carbobenzyloxy)ethyl)-3-amino-2-hydroxy-5-(ethylthio)pentanamide hydrochloride]	720 nM	–
CCOC(=O)CCNC(=O)C(O)[C@H](N)CC1CCCCC1 (stereo partly drawn) [Example 24, (2RS,3R)-N-(2-(carboethoxy)ethyl)-3-amino-2-hydroxy-4-cyclohexyl-butanamidehydrochloride]	1000 nM	–
CCOC(=O)[C@H](C)NC(=O)C(O)[C@H](N)Cc1ccccc1 (stereo partly drawn) [Example 26, (2RS,3R,1'S)-N-((1-ethoxycarbonyl)ethyl)-3-amino-2-hydroxy-4-phenyl-butanamide hydrochloride]	4700 nM	–
COc1ccc(CCNC(=O)C(O)[C@H](N)CCSC)cc1 (stereo partly drawn) [Example 27, (2RS,3R)-3-amino-2-hydroxy-N-(4-methoxyphenethyl)-5-(methylthio)pentanamidehydrochloride]	1700 nM	–
N[C@H](CC1CCCCC1)C(O)C(=O)NCCCCc1ccccc1 (stereo partly drawn) [Example 30, hydrochloride]	1100 nM	–
CSCC[C@@H](N)C(O)C(=O)N(C)CCc1ccccc1 (stereo partly drawn) [Example 33, (2RS,3R)-3-amino-2-hydroxy-N-methyl-5-(methylthio)-N-phenethylpentanaamide hydrochloride]	2500 nM	–
CCSCC[C@@H](N)C(O)C(=O)N[C@@H](C)C(=O)O (stereo partly drawn) [Example 34, hydrochloride]	3100 nM	–
CCOC(=O)C(C)(C)NC(=O)C(O)[C@H](N)CCSCC (stereo partly drawn) [Example 35, hydrochloride]	110 nM	–
CCOC(=O)[C@H](CO)NC(=O)C(O)[C@H](N)CCSCC (stereo partly drawn) [Example 36, (2RS,3R)-N-((1-(2-hydroxy)-1-ethoxycarboxyethyl) 3-amino-2-hydroxy-4-ethylthio)pentanamide hydrochloride]	140 nM	–
